The source of these data is patent US20250382588A1, “CHIMERIC AAV AND USES THEREOF” (priority 2023, published 2025).

Experiment [1] concerns the target T1, rM3Ds (Rattus norvegicus, UniProt P08483, A177S/A238G/A489L/DEL261-437/DEL441-478/E258S/I253V/I483M/INS256[…]/K178L/K182A/K255R/K484R/K486H/L173F/L482A/M480V/R171S/R176Q/R179M/S481M/T174R/T181R/T257A/Y148C).
T1 sequence (P08483 with tags, fused parts or gaps Y148C/R171S/L173F/T174R/R176Q/A177S/K178L/R179M/T181R/K182A/A238G/I253V/K255R/INS256[…]/T257A/E258S/DEL261-437/DEL441-478/M480V/S481M/L482A/I483M/K484R/K486H/A489L): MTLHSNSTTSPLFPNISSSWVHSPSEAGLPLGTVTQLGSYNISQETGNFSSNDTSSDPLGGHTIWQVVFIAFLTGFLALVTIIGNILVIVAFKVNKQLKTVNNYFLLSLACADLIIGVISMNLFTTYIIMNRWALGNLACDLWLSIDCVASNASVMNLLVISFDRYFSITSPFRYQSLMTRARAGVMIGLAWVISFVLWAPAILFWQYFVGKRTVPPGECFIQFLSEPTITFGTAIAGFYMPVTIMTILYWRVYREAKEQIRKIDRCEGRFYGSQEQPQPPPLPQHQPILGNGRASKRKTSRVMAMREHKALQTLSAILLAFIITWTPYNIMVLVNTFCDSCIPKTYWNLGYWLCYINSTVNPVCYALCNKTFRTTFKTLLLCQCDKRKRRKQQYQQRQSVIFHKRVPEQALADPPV
The experiment is described as follows: Electrophysiological recording in caudate/putamen of MPP+ lesioned macaques after CNO or DCZ. It counts as in vivo. As to the method:
Intriguingly, many of the symptoms were greatly reversed after systemic deschloroclozapine (DCZ) administration. DCZ is a potent brain-penetrable agonist for rM3Ds with reduced off-targeting binding compared to CNO, and was administered to activate the DREADD system in the macaque brain.
Electrophysiological recording was performed through a recording chamber while the monkey was anesthetized. Neural responses were recorded by a 16-channel linear probe (Plexon Inc, Uprobe) driven by a mechanical microdrive (Alpha Omega, FlexMT). Signals were passed through a head stage (Plexon Inc, HST/16V-G20 LN) and then split and filtered between 300 Hz and 5 kHz to identify spiking activity with an amplifier system (Plexon Inc, OmniPlex). Detected spikes were then sorted by commercially available software (Plexon Inc, Offline Sorter) for further analysis. To quantify the effect of CNO/DCZ injection, neural activity was recorded for 60 minutes following CNO/DCZ injection. The response time-course for each channel was obtained by counting the spikes within every 10-minute window and then normalizing to the maximal.
To determine the effect of CNO/DCZ injection on the direction of signal change, we performed Pearson correlation between neural responses and time using the ‘corr’ function in Matlab, which generates the correlation coefficient ‘r’ and significant level ‘p’. A neuron was considered to have “Increased” activity when r>0 and p<[…]; and considered to have “Decreased” activity when r<0 and p<0.05. Otherwise, neurons were considered to be “Unchanged” in their neural activities. The responses of all increased neurons were then averaged after being normalized by the maximal response (Crowe et al., 2014; Dai and Wang, 2018; Hirokawa et al., 2019) following CNO/DCZ injection, and then plotted as a function of time to generate the normalized population response.

In experiment [2] the test system is hM3Dq or rM3Ds. The experiment is described as follows: Locomotion test after nigral DREADD AAV and CNO in macaques. It counts as in vivo. As to the method:
To guide the virus injection in SNr, a guide grid of multiple holes spaced by 1 mm was installed on each subject vertically above the SN. By filling vitamin E in these holes, the accurate coordinates for injection could be obtained from the T1-weighted MRI images (3T Tim Trio scanner, Siemens). Virus injections were performed in nine sites covering the whole SNr, and a total volume of 27 μL virus was unilaterally injected in the right SNr at the speed of 300 nL/min.
To intracranially administrate drug and/or perform electrophysiological recording, a recording chamber covering from anterior caudate to posterior GPi was fixed on the skull with 6 titanium screws and dental cement. Each subject was allowed to recover from the surgery for at least 6 weeks prior to further studies.
The locomotion tests for monkeys were conducted in a custom-made observation cage (100 cm×100 cm×100 cm). The top and front of the cage were made of toughened glass in order to gain a clear view for behavioral recording. Monkeys were habituated to the observation cage by placing them inside for 30 minutes on three separate days.
For monkeys injected with AAV8R12-G88P3-HA-hM3Dq, CNO was intracranially infused into the dorsomedial caudate through the recording chamber. To infuse while the animal was awake, the monkey was trained to sit in a primate chair specially designed with its head fixed to the primate chair by a mask made of thermoplastic materials. Injections were conducted through a 33-Gauge needle connected to a 250 μL syringe via a polyethylene pipe (Hamilton, Neuros). […] The needle was held for 5 minutes for drug diffusion before retraction. […] Videos capturing the subjects' behavior were recorded for at least 90 minutes. Animal behaviors from 30-90 minutes after saline/CNO infusion were further analyzed and quantified.
For rotation analysis, only movements that occurred lower than 30 cm on the z-axis were counted. To determine the direction of the rotation, we first computed the center for the rotation data in the x-y plane as (x0, y0) by averaging all data points, and then we computed the angle relative to (x0, y0) for each time point by the following formula:
where θi represents the rotating angle at time i, and (xi, yi) represents the x-y coordinate at time i. We then calculated the change of rotating angle as Δθi=θi−θi-1. For right nigral injections, when Δθ<0, the direction of the rotation was anticlockwise and was labeled as a contraversive rotation. When Δθ>0, the direction of the rotation was clockwise and was labeled as an ipsiversive rotation. The raw data were analyzed and plotted through a custom R package. Code is available on Github (github.com/chenyef/PD_ana/blob/main/Behavior_ana.txt).

Setting [3] is: caudate/putamen, CNO 36 cells, DCZ 31 cells.
The mark [4] stands for this setting: intracranial or systemic CNO, n=4.

Take `C[N+]1([O-])CCN(C2=Nc3cc(Cl)ccc3Nc3ccccc32)CC1` [CNO, clozapine N-oxide]: in experiment [1] (anesthetized animals), the “neuronal activity in MPP+ lesioned macaques, in words” value is “induced an increase in neuronal activity”. In experiment [1] (setting [3]), the “cells activated (FIG. 15G)” value stood at 52.8%, the “cells inactivated (FIG. 15G)” value amounted to 13.9% and the “cells unchanged (FIG. 15G)” value came to 33.3%. Also, the “muscle tone of the contralateral biceps brachii (electromyogram)” value in experiment [2] (following CNO infusions) was “an increase in the muscle tone”. Further, in experiment [2] (setting [4]), the “immobile time (FIG. 10E)” value stood at 89.13±8.379, the “speed during contraversive rotations (FIG. 10G)” value worked out at 46.98±6.669, the “total distance (FIG. 10F)” value is given as 97.37±19.41 and the “velocity of ipsiversive rotations (FIG. 10H)” value is on record as 41.37±6.566.
